Experimental data: paper PMC3629081, “Tetrahydropyrazolo[1,5-a]Pyrimidine-3-Carboxamide and N-Benzyl-6′,7′-Dihydrospiro[Piperidine-4,4′-Thieno[3,2-c]Pyran] Analogues with Bactericidal Efficacy against Mycobacterium tuberculosis Targeting MmpL3” (PLoS ONE, 2013)
Values joined by “and” are separate entries in the source; they are usually repeats but may differ in a detail not shown here. Equal values may be shown once.

Assays:
M. tuberculosis = type: cell-based, Mycobacterium tuberculosis; conditions: 10x MIC
[1] = tested on: M. tuberculosis H37Rv mutants with MmpL3 mutations; type: cell-based, Mycobacterium tuberculosis

| Structure (SMILES) | frequency of spontaneous resistant mutant generation (M. tuberculosis) | Ratio MICmut/MICwt [1] | susceptibility of all isolated mutants to classic antitubercular drugs [1] |
| --- | --- | --- | --- |
| CCc1ccc([C@H]2C[C@@H](C(F)(F)F)n3ncc(C(=O)NCc4ccc(OC)cc4)c3N2)cc1 [Compound 1, (5R,7S)-5-(4-ethylphenyl)-N-(4-methoxybenzyl)-7-(trifluoromethyl)-4,5,6,7-tetrahydropyrazolo[1,5-a]pyrimidine-3-carboxamide] | 6.4×10^−8 mutant/cfus |  |  |
| c1cc2c(s1)CCOC21CCN(Cc2ccc3c(c2)OCCO3)CC1 [Compound 2] | 3.6×10^−8 mutant/cfus |  |  |
| CC[C@@H](CO)NCCN[C@@H](CC)CO [Ethambutol] |  | 0.5 and 1.0 and 0.8 | susceptible |
| CC(=O)NC[C@H]1CN(c2ccc(N3CCOCC3)c(F)c2)C(=O)O1 [Linezolid] |  | 0.5 and 1.0 | susceptible |
| COc1c(N2C[C@@H]3CCCN[C@@H]3C2)c(F)cc2c(=O)c(C(=O)O)cn(C3CC3)c12 [Moxifloxacin] |  | 1.0 and 0.5 | susceptible |
